Measured values taken from ChEMBL document CHEMBL3734745, “Synthesis of six mexiletine derivatives with isoindolines attached as potential antioxidants and their evaluation as cardioprotective agents” (Medchemcomm, 2015).
Active and inactive are the calls of the source. No cut-off for these calls is given here.

Legend:
RAW264.7 [1] = experiment: Cytotoxicity against mouse RAW264.7 cells assessed as cell viability at 100 uM by MTS assay; type: cell-based; details: raw264.7, 100 µM
Aorta = experiment: Antioxidant activity in NADPH stimulated Sprague-Dawley rat aorta assessed as reduction in photon emission at 10 uM incubated for 45 mins by lucigenin-enhanced chemiluminescence assay; type: functional, tissue-based
Erythrocyte = experiment: Antioxidant activity in C57Bl/6 mouse erythrocyte assessed as increase in AAPH-induced hemolysis time incubated for 30 mins by spectrophotometry; type: functional, cell-based
Rattus norvegicus = organism: Rattus norvegicus; experiment: (§1) Cardio-protective anti-ischemic activity in rat H9c2(2-1) cells assessed as reduction in cell death at 5 uM incubated for 12 hrs under hypoxic simulated ischemia by propidium iodide exclusion assay; type: functional
[2] = Toxicity in rat H9c2(2-1) cells assessed as cell death at 10 uM incubated for 12 hrs under hypoxic simulated ischemia by propidium iodide exclusion assay; type: cell-based
Right cardiac atrium [3] = experiment: Reduction in resting atrial rate in Guinea pig right atria at 100 uM by electrogram (reference value: 175 to 200 bpm); type: functional
Right cardiac atrium [4] = experiment: Increase in absolute refractory period in Guinea pig right atria at 100 uM incubated for 30 mins by electrogram; type: functional; details: Cavia porcellus
Cavia porcellus = organism: Cavia porcellus; experiment: Effect on papillary muscle refractory period in Guinea pig at 100 uM by electrogram; type: functional, tissue-based
RAW264.7 [5] = experiment: Antioxidant activity in phorbol 12,13-dibutyrate stimulated mouse RAW264.7 cells assessed as inhibition of ROS generation by measuring the reduction in photon emission at 100 uM incubated for 60 mins by L-012-enhanced chemiluminescence assay relative to control; type: functional
[6] = as §1; type: functional; parameters: scale not given: the % may be the effect or the level left

| SMILES | Activity (RAW264.7 [1]) | Activity (Aorta) | Activity (Erythrocyte) | Activity (Rattus norvegicus) | Activity [2] | Activity (Right cardiac atrium [3]; Cavia porcellus) | Activity (Right cardiac atrium [4]) | Activity (Cavia porcellus) | Activity (RAW264.7 [5]) | Activity [6] | Activity (Right cardiac atrium [3]) |
| --- | --- | --- | --- | --- | --- | --- | --- | --- | --- | --- | --- |
| CC1(C)c2ccccc2C(C)(C)N1O | Non-toxic | inactive | inactive | – | – | – | – | – | – | – | – |
| CC(COc1c(Cl)cccc1Cl)NCc1ccc2c(c1)C(C)(C)N(O)C2(C)C (stereo not drawn) | Non-toxic | – | – | – | – | – | – | – | – | – | – |
| Cc1cccc(C)c1OCC(C)NCc1ccc2c(c1)C(C)(C)N(O)C2(C)C (stereo not drawn) | – | – | – | Active | Toxic | Active | Active | inactive | inactive | – | – |
| CC(COc1c(Cl)cccc1Cl)NCc1ccc2c(c1)C(C)(C)NC2(C)C (stereo not drawn) | Non-toxic | – | – | – | – | – | – | – | – | – | – |
| Cc1cccc(C)c1OCC(C)NCc1ccc2c(c1)C(C)(C)NC2(C)C (stereo not drawn) | – | – | – | – | Toxic | Active | Active | inactive | inactive | 55% | – |
| CC1(C)c2ccccc2C(C)(C)N1[O] | Non-toxic | inactive | inactive | – | – | – | – | – | – | – | – |
| Cc1cccc(C)c1OCC(C)N (stereo not drawn) [MEXILETINE] | – | inactive | inactive | inactive | – | – | Active | Active | inactive | – | 15 bpm |
| CC(N)COc1c(Cl)cccc1Cl (stereo not drawn) | – | – | – | – | – | – | Active | inactive | – | – | 15 bpm |
| Cc1cccc(C)c1OCC(C)NCc1ccc2c(c1)C(C)(C)N([O])C2(C)C (stereo not drawn) | – | – | – | – | – | Active | Active | inactive | inactive | – | – |
| CC1(C)NC(C)(C)c2ccccc21 | Non-toxic | inactive | inactive | – | – | – | – | – | – | – | – |
| CC(COc1c(Cl)cccc1Cl)NCc1ccc2c(c1)C(C)(C)N([O])C2(C)C (stereo not drawn) | Non-toxic | – | – | Active | Toxic | Active | inactive | inactive | – | – | – |
